ChEMBL document CHEMBL3507680, “University of Dundee, Gates Library screen for HepG2 cell viability”

test: Human HepG2 cell viability assay in 384 well format; type: toxicity, cell-based; parameters: dose 125 nL, time 70.5 hour; concentration not given beside the values; conditions: HepG2 cells, read-out: Inhibition

Compared with O=C(c1ccc(C(F)(F)F)cc1)C1CCCN(C(=O)Cn2cnnn2)C1 (stereo unspecified), CCNC(=O)C1CCN(Cc2ccc(C(=O)Nc3nnc(C)s3)cc2)C1 (stereo unspecified) is higher in cytotoxicity at 70.5 h: -15.3% for the first, 26.3% for the second.

Going from O=C(c1cccc(Cl)c1)N1CC[C@@H](N2CCC(O)CC2)[C@H](O)C1 to CN1CCC(N2CCC(c3ccccc3C(=O)O)C2)CC1 (stereo unspecified), the cytotoxicity at 70.5 h falls from 16% to -0.525%.

Compared with Cc1cc(N2CCC3(CCCN(CCO)C3=O)C2)nc(C)c1C#N (stereo unspecified), Cc1cc(N2CCC3(CCCN(CCO)C3=O)C2)nc2ccccc12 (stereo unspecified) is lower in cytotoxicity at 70.5 h: -18.8% for the first, -26.3% for the second.

Compared with Cc1cc(C(=O)N2CCCC(Cn3cc(C4CC4)nn3)C2)nc(C)n1 (stereo unspecified), O=C(c1ncc[nH]1)N1CCC(Cn2cc(-c3cccc(Cl)c3)nn2)CC1 is higher in cytotoxicity at 70.5 h: -13.2% for the first, 20.7% for the second.

Going from c1ccc(CCCN2CCN(CCn3cncn3)CC2)cc1 to O=C(Cc1ccsc1)N1CCN(CCOc2ccccc2)CC1, the cytotoxicity at 70.5 h falls from -3.65% to -5.67%.

Going from CN(CC1=CCCN(Cc2cccc(C#N)c2)C1)C(=O)c1ccco1 to Cc1cc(CN2CCC=C(CN(C)C(=O)c3ccco3)C2)no1, the cytotoxicity at 70.5 h rises from -12.2% to -7.11%.

Going from Cc1noc(C)c1CN(C)C(=O)CN1CC(c2ccccc2)CC1=O (stereo unspecified) to CSc1cccc(CN(C)C(=O)Cn2ncc(N(C)C)cc2=O)c1, the cytotoxicity at 70.5 h rises from -6.3% to -3.4%.

Going from Cc1cc(Cl)ccc1C(=O)N[C@H]1CN(S(C)(=O)=O)C[C@@H]1C1CC1 to CC(=O)N[C@H]1CN(S(=O)(=O)N(C)Cc2ccccc2)C[C@@H]1C1CC1, the cytotoxicity at 70.5 h falls from -0.333% to -2.36%.

Going from CCOCc1nc(-c2ccc(F)cc2Cl)n(C2CCN(C)CC2)n1 to CCn1c(CN(C)C)nnc1C1CCN(Cc2ccc(Cl)c(F)c2)CC1, the cytotoxicity at 70.5 h rises from -17.9% to -6.05%.

First: CCCN1CCCn2nc(CNC(=O)CCOC)cc2C1
Second: CC(=O)N1CCCn2nc(CNS(=O)(=O)N(C)C(C)C)cc2C1
The cytotoxicity at 70.5 h of the first is higher: -4.33% for the first, -14.6% for the second.

Going from COCC(NC1CSCCSC1)c1ccnn1C (stereo unspecified) to CC(C)c1nc(N2CCC(N3CCSCC3)CC2)c2cnn(C)c2n1, the cytotoxicity at 70.5 h rises from -13.2% to -2.43%.

Compared with CCc1cc(NCCNC(C)=O)nc(N2CCCC2)n1, Cc1nc(CC(=O)NCc2csc(N3CCCC3)n2)cs1 is lower in cytotoxicity at 70.5 h: 23.3% for the first, -4.47% for the second.

Compared with CCCn1cnnc1CNC(=O)C1COc2cc(OC)ccc2C1 (stereo unspecified), CN1CCC(Cc2noc(-c3cccc(OCC(N)=O)c3)n2)CC1 is lower in cytotoxicity at 70.5 h: 18.3% for the first, 7.49% for the second.

Going from CN(C)CCn1ccnc1C1CCCN(c2ncc(Cl)cc2F)C1 (stereo unspecified) to CN(C)CCCn1ccnc1C1CCCN(c2ncc(Cl)cc2F)C1 (stereo unspecified), the cytotoxicity at 70.5 h rises from -3.65% to -2.12%.

Going from Cc1cc(C(F)(F)F)nc(CCNC(C)Cn2cncn2)n1 (stereo unspecified) to Cc1nc(CCN)cc(N(C)Cc2nc3ccc(F)cc3[nH]2)n1, the cytotoxicity at 70.5 h rises from -11.4% to 0.172%.

Going from CCn1cc(CN2CCC(CN3CCCCC3)CC2)cc1C#N to CCn1cc(S(=O)(=O)NC2CCCN(CC3CCCCC3)C2)cn1 (stereo unspecified), the cytotoxicity at 70.5 h rises from 4.33% to 15.9%.

Compared with CN1CCN(CCc2ncnn2-c2ccc3c(c2)OCO3)CC1, CC(C)N(Cc1c[nH]nc1-c1ccc2c(c1)OCO2)Cc1nccn1C is lower in cytotoxicity at 70.5 h: 22% for the first, -4.64% for the second.

Compared with Cc1nc[nH]c1C(=O)N1CCC2(CC1)CN(CCN(C)C)C(=O)O2, CCn1c(C2CCCN(C(=O)c3ccc[nH]3)C2)nn(CCN(C)C)c1=O (stereo unspecified) is higher in cytotoxicity at 70.5 h: -6.22% for the first, 4.96% for the second.

Going from Cc1nccn1-c1ccc(NC(=O)C2CCCN2Cc2ccoc2)cc1 (stereo unspecified) to CSc1ccc(CN2CCC(CCC(=O)Nc3ccccc3)CC2)cc1, the cytotoxicity at 70.5 h rises from -6.93% to 8.45%.

First: Cc1nc2c(C)cccc2cc1C(=O)N1CCC2(CCN(C)CC2)C1
Second: CCN1CC2(CCC1=O)CCN(C(=O)c1cn3cccnc3n1)CC2
The cytotoxicity at 70.5 h of the first is lower: 3.12% for the first, 34.9% for the second.

Compared with CCc1cnc(C)nc1NC(C)C(=O)Nc1cc(F)ccc1C (stereo unspecified), CC(C)(C)c1nc(CN2CCc3onc(-c4cccc(F)c4)c3C2)no1 is lower in cytotoxicity at 70.5 h: 22.4% for the first, -12.1% for the second.

Going from O=C(CSCC1CC1)N1CCCC2(CCC(=O)N(CC3CC3)C2)C1 (stereo unspecified) to Cc1cc(N2CCC3(CCC(=O)N(CC4CC4)C3)CC2)ncn1, the cytotoxicity at 70.5 h rises from -25.9% to -7.85%.

Going from Cc1nn2cc(CCNC(=O)c3cc(C(C)C)no3)nc2s1 to CCN(CC)C(=O)Cn1cc(C(=O)NCCc2nc(C)c(C)s2)nn1, the cytotoxicity at 70.5 h falls from 12.6% to -2.44%.

Compared with CCc1ccc(CN2CCN(c3cccc(OC)c3)C(=O)C2)nc1, Cc1ccc2nc(CN3CCN(C4CCCCC4)C(=O)C3)cc(O)c2c1 is higher in cytotoxicity at 70.5 h: -8.23% for the first, -0.969% for the second.

Going from CN1CCN([C@H]2CCN(C(=O)c3nn(C)cc3Cl)C[C@H]2CCCO)CC1 to Cc1nc(C(C)C)sc1C(=O)N1CCN(C2CN3CCC2CC3)CC1 (stereo unspecified), the cytotoxicity at 70.5 h rises from -10.4% to -6.54%.

First: COC(=O)C1C=CCN1C(=O)c1cc(COc2ccccc2)[nH]n1 (stereo unspecified)
Second: COc1ccc(C(CC(=O)NCc2n[nH]c(N)n2)c2ccccc2)cc1 (stereo unspecified)
The cytotoxicity at 70.5 h of the first is lower: -5.33% for the first, -4.65% for the second.

First: CCOC(=O)N1CCC2(CC1)N=C(CCC(C)C)NC2=O
Second: CCc1csc(CCNC(=O)CC2CCN(C(C)C)CC2)n1
The cytotoxicity at 70.5 h of the first is lower: -1.58% for the first, 23% for the second.

Compared with CC(C)n1cnnc1CN(C)C1CCCNC1 (stereo unspecified), CC(C)c1cc(C(=O)N2CCNCC2C(=O)NCc2ccncc2)on1 (stereo unspecified) is higher in cytotoxicity at 70.5 h: -10.1% for the first, -2.19% for the second.

Going from Cc1ccsc1C(Cn1ccnc1-c1ccccc1C(=O)O)N(C)C (stereo unspecified) to CCN1CCCC(C)(C(=O)NCc2nccn2Cc2ccccc2)C1 (stereo unspecified), the cytotoxicity at 70.5 h falls from 19.1% to 0.597%.

Going from OCCC1CN(c2nc(-c3cccnc3)nc3c2CCNCC3)CCO1 (stereo unspecified) to Cc1nc2c(c(N3CCCC(CO)C3)n1)CCN(Cc1ccco1)CC2 (stereo unspecified), the cytotoxicity at 70.5 h rises from -1.49% to 16.9%.

Compared with CC(C)c1nccc(-c2nccn2CCN(C)S(C)(=O)=O)n1, Cc1ccc(-n2c(COC(C)C)n[nH]c2=O)cc1 is lower in cytotoxicity at 70.5 h: 19% for the first, -2.37% for the second.

First: CNC(=O)c1cn2cc(-c3ccccc3Cl)n(CC3CC3)c(=O)c2n1
Second: C[C@@H]1CN(CCC(=O)NCc2ccccc2Cl)C[C@@]1(O)C1CC1
The cytotoxicity at 70.5 h of the first is higher: 15.9% for the first, -2.59% for the second.

Going from Cc1ccsc1CN(C)c1cc(N2CCOCC2)ncn1 to CCc1cc(N2C[C@H](C3CC3)[C@@H](N)C2)nc(N2CCOCC2)n1, the cytotoxicity at 70.5 h falls from -2.06% to -5.91%.

Going from O=C(Nc1nc(-c2ccccc2)ns1)N1CCN(C(=O)C2CC2)CC1 to O=c1[nH]c(-c2ccccn2)nc2c1CCN(S(=O)(=O)N1CCCC1)C2, the cytotoxicity at 70.5 h falls from -0.566% to -3.27%.

First: C=C(C)COc1ccccc1C(=O)NCc1nc(C)cc(=O)[nH]1
Second: COc1cc(F)c(C(=O)NCc2cc(C)on2)c(F)c1
The cytotoxicity at 70.5 h of the first is lower: -11.2% for the first, -6.54% for the second.

Compared with COc1ccc(OC)c(-c2nc(CN(C)Cc3nonc3C)c(C)o2)c1, COc1ccc(Cn2cc(C(=O)N(C)CCN(C)C)nn2)cc1 is lower in cytotoxicity at 70.5 h: 26.4% for the first, -15% for the second.

Going from O=C(CCN1CCCC(CO)(CC2CC2)C1)NC1CCCCC1 (stereo unspecified) to O=C(O)[C@]12CN(CC3CCC3)C[C@H]1CN(c1cnccn1)C2, the cytotoxicity at 70.5 h rises from -25.2% to -4.33%.

First: CCOCc1nc2c(c(NC(CC)c3ccncc3)n1)CCNCC2 (stereo unspecified)
Second: CNc1nc(N2CCN(Cc3ccsc3)C(CCO)C2)nc2c1CCC2 (stereo unspecified)
The cytotoxicity at 70.5 h of the first is higher: 1.72% for the first, -1.63% for the second.

Going from Cc1ccccc1[C@@H]1CN(CCCS(=O)(=O)N(C)C)C[C@H]1C(=O)O to CN(C)C(=O)N1CC[C@@H](c2ccc3ccccc3c2)[C@H](O)C1, the cytotoxicity at 70.5 h falls from 7.05% to 6.36%.

Compared with Cn1ncc2c(N[C@@H]3C[C@@H]4CC[C@H]3C4)nc(-c3ccncc3)nc21, CC(C)c1nc(N2CCC(N3CCCC(O)C3)CC2)c2cnn(C)c2n1 (stereo unspecified) is higher in cytotoxicity at 70.5 h: -2.05% for the first, 1.93% for the second.

First: c1cnnc(-c2noc(COCC3CCCO3)n2)c1 (stereo unspecified)
Second: Fc1ccccc1Cc1noc(CN2CCC(C3CCCCC3)C2)n1 (stereo unspecified)
The cytotoxicity at 70.5 h of the first is lower: -3.34% for the first, 34.7% for the second.

Compared with CC1(CNS(=O)(=O)c2cccc(C(=O)N3CCSCC3)c2)COC1, O=C(CCc1cc2n(n1)CCCNC2)N1CCSCC1 is lower in cytotoxicity at 70.5 h: -6.9% for the first, -9.8% for the second.

Compared with Cc1cc(C2CCC2)nc(N2CC(n3cccn3)C2)n1, Cc1cc(C)n(C2CN(c3nc(N)nc4c3CCCC4)C2)n1 is lower in cytotoxicity at 70.5 h: -4.39% for the first, -16.5% for the second.

Compared with Cc1nc2ccc(CN3CC4(CCOC4)CCC3=O)cc2[nH]1 (stereo unspecified), CCc1nc(N)nc(N2CCCC3(CN(C)C(=O)O3)C2)c1C (stereo unspecified) is lower in cytotoxicity at 70.5 h: -1.05% for the first, -10.4% for the second.

First: CCC[C@@H]1CN(Cc2nnc(-c3cccc(F)c3)o2)C[C@H]1NC(C)=O
Second: CSCCC1c2nc[nH]c2CCN1Cc1ccccc1C#N (stereo unspecified)
The cytotoxicity at 70.5 h of the first is lower: -15.2% for the first, -6.75% for the second.

Compared with CCCn1ccnc1CN1CCc2[nH]cnc2C1Cc1ccccc1 (stereo unspecified), c1ccc(CN2CCC(Nc3ncnc4c3CCNCC4)C2)cc1 (stereo unspecified) is higher in cytotoxicity at 70.5 h: -4.4% for the first, -4.37% for the second.

Compared with N[C@@H]1c2ccccc2C2(CCN(c3cnc4ccccc4n3)CC2)[C@H]1O, COCc1cc(N2CCN(c3ccc(Cl)cn3)CC2)n2nccc2n1 is higher in cytotoxicity at 70.5 h: -9.08% for the first, -0.783% for the second.

First: CC(C)=CCN1C(=O)[C@H]2CC[C@@H]1CN(c1ncccc1C(N)=O)C2
Second: O=C1OCCN1CC(=O)N1C[C@H]2CC[C@@H]1CN(C(=O)c1ccccn1)C2
The cytotoxicity at 70.5 h of the first is lower: -9.49% for the first, -7.06% for the second.

Compared with CC(C)(CN1CCC2(CCOCC2)CC1)N1CCOCC1, Cc1nc2c(c(N3CCC(O)(CN4CCCC4)CC3)n1)CCNCC2 is lower in cytotoxicity at 70.5 h: 9.42% for the first, -3.88% for the second.

Going from c1ccc2c(c1)CC(Cc1cc(N3CCCC3)cnn1)CO2 (stereo unspecified) to Cc1ccc(NCCCNC(=O)C2CCCN(Cc3ccco3)C2)nc1 (stereo unspecified), the cytotoxicity at 70.5 h rises from -7.55% to 7.19%.

Going from CN1CC2(CCN(C(=O)c3cn4cccnc4n3)CC2)CC1=O to CNc1nc(C(=O)N2CCn3nc(C(=O)OC)cc3C2)cs1, the cytotoxicity at 70.5 h falls from 39.7% to -4.4%.

Going from O=C(NCC(F)(F)F)C(c1cccnc1)N1CCCC1 (stereo unspecified) to Nc1ccncc1-n1cc(CCO)cn1, the cytotoxicity at 70.5 h rises from -5.02% to 1.11%.

Compared with CCCC(=O)Nc1ccc(CC(=O)N(CC)CC2CCCCO2)cc1 (stereo unspecified), CCOc1ccc(CN2CCN(CCOC)[C@@H]3CS(=O)(=O)C[C@@H]32)cc1 is lower in cytotoxicity at 70.5 h: 8.7% for the first, 5.04% for the second.

Compared with CC1(C)CNC(=O)c2nc(-c3nnc(-c4ccccc4)[nH]3)[nH]c2C1, Cc1cc(NC(=O)Cn2ccc(-c3ccc4c(c3)OCO4)n2)n(C)n1 is lower in cytotoxicity at 70.5 h: 0.339% for the first, -13.2% for the second.

Compared with COc1ccc(-c2ccc(C(=O)N3CCC[C@@H]3CO)o2)cc1, COCCC1(CO)CCCN(C(=O)c2cc(=O)[nH]c(=O)[nH]2)C1 (stereo unspecified) is higher in cytotoxicity at 70.5 h: -13.9% for the first, -8.57% for the second.

For Cc1cc2occ(CC(=O)N3CCC(O)(CN(C)C)C3)c2cc1Cl (stereo unspecified), the cytotoxicity at 70.5 h was -5.39%.
